Activity calls are given as the source filed them. No cut-off for these calls is given here. Peptide text beside a SMILES is read from it.
Legend:
Jurkat [1] = assay: (§1) Activity on rosetting of jurkat T-cells with SRBC at the concentration of 10e-9 M; type: functional, Homo sapiens
Jurkat [2] = assay: (§2) Activity on rosetting of jurkat T-cells with SRBC at the concentration of 10e-14 M; type: functional, Homo sapiens
Jurkat [3] = assay: Activity on rosetting of jurkat T-cells with SRBC at the concentration of 10e-15 M; type: functional, Homo sapiens
Jurkat [4] = assay: (§3) Activity on rosetting of jurkat T-cells with SRBC at the concentration of 10e-4 M; type: functional, Homo sapiens
Jurkat [5] = assay: (§4) Activity on rosetting of jurkat T-cells with SRBC at the concentration of 10e-5 M; type: functional, Homo sapiens
Jurkat [6] = assay: (§5) Activity on rosetting of jurkat T-cells with SRBC at the concentration of 10e-6 M; type: functional, Homo sapiens
Jurkat [7] = assay: (§6) Activity on rosetting of jurkat T-cells with SRBC at the concentration of 10e-7 M; type: functional, Homo sapiens
Jurkat [8] = assay: (§7) Activity on rosetting of jurkat T-cells with SRBC at the concentration of 10e-8 M; type: functional, Homo sapiens
Jurkat [9] = assay: Activity on rosetting of jurkat T-cells with SRBC at the concentration of 10e-15 M; Not significant; type: functional, cell-based; conditions: Homo sapiens
Jurkat [10] = assay: as §3; type: functional; conditions: Homo sapiens
Jurkat [11] = assay: as §4; type: functional; conditions: Homo sapiens
Jurkat [12] = assay: as §5; type: functional; conditions: Homo sapiens
Jurkat [13] = assay: as §6; type: functional; conditions: Homo sapiens
Jurkat [14] = assay: as §7; type: functional; conditions: Homo sapiens
Jurkat [15] = assay: as §1; type: functional; conditions: Homo sapiens
Jurkat [16] = assay: Activity on rosetting of jurkat T-cells with SRBC at the concentration of 0 M; type: functional, Homo sapiens
Jurkat [17] = assay: (§8) Activity on rosetting of jurkat T-cells with SRBC at the concentration of 10e-10 M; type: functional, Homo sapiens
Jurkat [18] = assay: (§9) Activity on rosetting of jurkat T-cells with SRBC at the concentration of 10e-11 M; type: functional, Homo sapiens
Jurkat [19] = assay: (§10) Activity on rosetting of jurkat T-cells with SRBC at the concentration of 10e-12 M; type: functional, Homo sapiens
Jurkat [20] = assay: (§11) Activity on rosetting of jurkat T-cells with SRBC at the concentration of 10e-13 M; type: functional, Homo sapiens
Jurkat [21] = assay: as §2; type: functional; conditions: Homo sapiens
Jurkat [22] = assay: as §8; type: functional; conditions: Homo sapiens
Jurkat [23] = assay: as §9; type: functional; conditions: Homo sapiens
Jurkat [24] = assay: as §10; type: functional; conditions: Homo sapiens
Jurkat [25] = assay: as §11; type: functional; conditions: Homo sapiens
Jurkat [26] = assay: Activity on rosetting of jurkat T-cells with SRBC at the concentration of 10e-10 M; Not Determined; type: functional, Homo sapiens
Jurkat [27] = assay: Activity on rosetting of jurkat T-cells with SRBC at the concentration of 10e-11 M; Not Significant; type: functional, cell-based; conditions: Homo sapiens
Jurkat [28] = assay: Activity on rosetting of jurkat T-cells with SRBC at the concentration of 10e-12 M; Not Significant; type: functional, cell-based; conditions: Homo sapiens

SMILES | No. of rosettes/100 Jurkat T cells (Jurkat [1]) | No. of rosettes/100 Jurkat T cells (Jurkat [4]) | No. of rosettes/100 Jurkat T cells (Jurkat [5]) | No. of rosettes/100 Jurkat T cells (Jurkat [6]) | No. of rosettes/100 Jurkat T cells (Jurkat [7]) | No. of rosettes/100 Jurkat T cells (Jurkat [8]) | inhibition at 100 µM (Jurkat [10]) | inhibition at 10 µM (Jurkat [11]) | inhibition at 1 µM (Jurkat [12]) | inhibition at 0.1 µM (Jurkat [13]) | inhibition at 0.01 µM (Jurkat [14]) | inhibition at 0.001 µM (Jurkat [15]) | No. of rosettes/100 Jurkat T cells (Jurkat [16]) | No. of rosettes/100 Jurkat T cells (Jurkat [18]) | No. of rosettes/100 Jurkat T cells (Jurkat [19]) | inhibition at 0.0001 µM (Jurkat [22]) | other results
NCCCC[C@H](NC(=O)[C@H](CC(=O)O)NC(=O)[C@@H](N)CO)C(=O)O (H-Ser-Asp-Lys-OH) | 43 | 38 | 45 | 50 | 49 | 40 | 40% | 28% | 22% | 22% | 36% | 32% | 63 | 40 | 44 | 32% | No. of rosettes/100 Jurkat T cells (Jurkat [2]): 55; No. of rosettes/100 Jurkat T cells (Jurkat [3]): 63; inhibition (Jurkat [9]): inactive; No. of rosettes/100 Jurkat T cells (Jurkat [17]): 43; No. of rosettes/100 Jurkat T cells (Jurkat [20]): 51; inhibition at 10 fM (Jurkat [21]): 14%; inhibition at 10 pM (Jurkat [23]): 36%; inhibition at 1 pM (Jurkat [24]): 30%; inhibition at 100 fM (Jurkat [25]): 19%
CC(=O)N[C@@H](CO)C(=O)N[C@@H](CC(=O)O)C(=O)N[C@@H](CCCCN)C(=O)O (Ac-Ser-Asp-Lys-OH) | 51 | 35 | 37 | 38 | 45 | 48 | 44% | 40% | 39% | 27% | 23% | 18% | 63 | 62 | 59 | 10% | No. of rosettes/100 Jurkat T cells (Jurkat [26]): 56; inhibition (Jurkat [27]): inactive; inhibition (Jurkat [28]): inactive
